These are literature values, as cited in EP4796171A2 (Zealand Pharma A/S, priority 2017, dated 2018).

For this data set the following is noted: background statement; cited from earlier work.

Take `CC[C@H](C)[C@H](NC(=O)[C@H](Cc1ccccc1)NC(=O)[C@H](CC(=O)O)NC(=O)[C@H](CCCNC(=N)N)NC(=O)[C@H](C)NC(=O)[C@H](C)NC(=O)[C@H](CC(C)C)NC(=O)[C@H](CC(N)=O)NC(=O)[C@H](CC(=O)O)NC(=O)[C@H](CC(C)C)NC(=O)[C@@H](NC(=O)[C@@H](NC(=O)[C@H](CC(N)=O)NC(=O)[C@H](CCSC)NC(=O)[C@H](CCC(=O)O)NC(=O)[C@H](CC(=O)O)NC(=O)[C@H](CO)NC(=O)[C@H](Cc1ccccc1)NC(=O)[C@H](CO)NC(=O)CNC(=O)[C@H](CC(=O)O)NC(=O)CNC(=O)[C@@H](N)Cc1c[nH]cn1)[C@@H](C)O)[C@@H](C)CC)C(=O)N[C@@H](CC(N)=O)C(=O)N[C@@H](Cc1c[nH]c2ccccc12)C(=O)N[C@@H](CC(C)C)C(=O)N[C@H](C(=O)N[C@@H](CCC(N)=O)C(=O)N[C@H](C(=O)N[C@@H](CCCCN)C(=O)N[C@H](C(=O)N[C@H](C(=O)N[C@@H](CC(=O)O)C(=O)O)[C@@H](C)O)[C@@H](C)CC)[C@@H](C)O)[C@@H](C)CC` [Teduglutide]: the Half-life result was “about two”.
